# US12370202B2, “Methods and compositions for inhibiting the NLRP3 inflammasome and/or LON protease” (TRITERPENOID THERAPEUTICS, INC., priority 2019, dated 2025)
# Legend:
# Caspase 1 = Caspase 1 activation in LPS-primed BMDM, immunoblotting (caspase-p10); format: cell-based, mouse; settings: different doses (30-1000 nM) 15 min before ATP (5 mM) 45 min
# Description: FIG. 5 depicts a Western blot. CDDO-Im, CDDO-2P-Im, and CDDO-3P-Im inhibit Caspase 1 activation. LPS primed BMDM were treated with different doses of CDDO-Im, CDDO-2P-Im, or CDDO-3P-Im for 15 min before ATP (5 mM) was added for 45 min. Medium supernatant (SUP) and cell extracts (Lys) were analyzed by immunoblotting.
# (§1) The effects of the pyridyl derivatives of CDDO-IM, (specifically, CDDO-2P-Im and CDDO-3P-Im) on NLRP3 inflammasome activation were tested in mouse BMDMs. Cells were first primed with LPS for 4 hours, then pretreated with specific doses of either CDDO-Im, CDDO-2P-IM or CDDO-3P-Im (30-1000 nM) for 15 min before ATP was added for another 45 min. CDDO-Im and its pyridyl derivatives inhibited the amount of caspase-p10 (an auto-processed fragment of caspase-1) released into cell culture supernatants in a dose-dependent manner as measured by Western blot (FIG. 5). […] The effect on caspase-1 activation is specific for the NLRP3 inflammasome as the AIM2 inflammasome activation by poly(dA:dT) was not inhibited by the synthetic CDDO-Im derivatives (data not shown).
# NLRP3 inflammasome = NLRP3 inflammasome activation in LPS-primed BMDM, IL-1β ELISA; format: cell-based, mouse
# Description: FIG. 4A depicts an experimental design and FIG. 4B is a bar graph. Ixazomib (IXZ) potentiation of NLRP3 inflammasome activation inhibited by CDDO-2P-Im. Bone marrow derived macrophages (BMDM) were treated with Ixazomib (IXZ) and LPS (100 ng/ml) for 20 hours. Primed-BMDM were treated with CDDO-2P-Im (100 nM) for 15 min, followed by stimulation of ATP (5 mM) for 45 min. Supernatant were analyzed by ELISA for IL-1β release.
# FIG. 6 is a set of bar graphs. CDDO-Im, CDDO-2P-Im (right panel), and CDDO-3P-Im (left panel) inhibit IL-1β production by NLRP3 inflammasome activation. LPS primed-BMDM were treated with different doses of CDDO-Im, CDDO-2P-Im, or CDDO-3P-Im for 15 min before ATP (5 mM) was added for 45 min. Supernatant were analyzed by ELISA for IL-1β.
# To explore the potential that CDDO-2P-IM may enhance the MM response to proteasome inhibitors via inhibition of inflammasome activity, the effect of CDDO-2P-IM on activation of the NLRP3 complex (as defined by IL-1β production), in the presence or absence of IXZ in primary mouse bone marrow derived macrophages (BMDM) was evaluated. In the experiment, BMDM were primed by lipopolysaccharide (LPS) in the presence or absence of IXZ for 4 hours, followed by a brief ([…]) exposure to CDDO-2P-IM after which inflammasome activation was triggered by ATP.
# as §1
# CP70 = test: Ovarian cancer cell growth (confluence), IncuCyte ZOOM; format: cell-based, human
# Text: (§2) FIG. 11 is a set of line graphs. Cisplatin resistant human ovarian cancer cell lines A2780, CP70, OV81, CP10, OVCAR-5 and OVCAR-8 were exposed to CDDO-2P-Im, cisplatin, or a combination of CDDO-2P-Im and cisplatin.
# (§3) CDDO-2P-Im suppresses growth of cisplatin-resistant human ovarian cancer cells in vitro. Cisplatin resistant human ovarian cancer cell lines A2780, CP70, OV81, CP10, OVCAR-5 and OVCAR-8 cell were each cultured in a complete medium consisting of RPMI1640, 20% heat-inactivated FBS, 1% penicillin/streptomycin. Cells were cultured in a water jacketed CO2 incubator at 37° C. in a humidified atmosphere consisting of 5% CO2 and 95% air. Continuous live-cell analysis (CLCA) was used as a non-invasive cell monitoring and measurement method based on time-lapse, phase-contrast microscopy and fluorescence imaging, using IncuCyte® ZOOM. Cells were seeded in 96-well plates at densities of either 1×10^4 or 3×10^4 cell/cm^2 followed by addition of a drug dilution series for either CDDO-2P-Im or Cisplatin (P4394, Sigma) dissolved in PBS and diluted in media. […] Reduction in confluence is accompanied by the detachment and death of ovarian cancer cells.
# CP10 = test: as above; format: cell-based, human
# Text: as §2, §3
# OVCAR-8 = test: as above; format: cell-based, human
# Text: as §2, §3
# OVCAR-5 = test: as above; format: cell-based, human
# Text: as §2, §3
# A2780 = test: as above; format: cell-based, human
# Text: as §2, §3
# OV81 = test: as above; format: cell-based, human
# Text: as §2, §3
# NLRP3 = test: Mono-sodium urate (MSU)-induced peritonitis; format: in vivo, Mice; settings: MSU crystals 1 mg/mouse i.p.; lavage four to sixteen hours later
# Description: FIG. 7 is a bar graph. CDDO-Im, CDDO-2P-Im, and CDDO-3P-Im inhibit mono-sodium urate (MSU)-induced peritonitis. Peritoneal cavity IL-1β levels expressed as mean and SEM (n=6).
# Mice received intraperitoneal (i.p.) injections of mono-sodium urate (MSU) crystals (1 mg/mouse) in the presence or absence of CDDO-Im, CDDO-2P-Im, or CDDO-3P-Im. Due to its particulate material, MSU crystals are potent activators of the NOD-like receptor NLRP3. Four to sixteen hours later a peritoneal lavage was conducted to collect supernatant from the peritoneal cavity.
# CCL2 = CCL2 expression in LPS-stimulated human macrophages, RT-qPCR; format: cell-based; settings: 500 pM, 16 hours pretreatment, then 10 ng/ml LPS 24 hours
# Description: FIG. 10 is a bar graph. CDDO-Me, CDDO-Im, CDDO-2P-Im, and CDDO-3P-Im inhibit expression of CCL2 in human macrophages at picomolar concentrations.
# Human peripheral blood monocytes were isolated using CD14 magnetic beads and differentiated with 20 ng/ml M-CSF for with 5 days and pretreated or not with 300 nM CDDO-Me; 500 pM CDDO-Im; 500 pM CDDO-2p-Im; 500 pM CDDO-3p-Im for 16 hours, followed by stimulation with 10 ng/ml LPS for an additional 24 hours. Total RNA was extracted and analyzed by RT-qPCR (Tagman) for cytokine expression.
# [1] = suboptimal doses combined with cisplatin, significance at 0.005 or greater
compound,measurement,setting,value
"CC1(C)CC[C@]2(C(=O)n3cnc(-c4ccccn4)c3)CC[C@]3(C)[C@H](C(=O)C=C4[C@@]5(C)C=C(C#N)C(=O)C(C)(C)[C@@H]5CC[C@]43C)[C@@H]2C1 [CDDO-2P-Im, 1-[2-Cyano-3,12-dioxooleana-1,9(11)-dien-28-oyl]-4(-pyridin-2-yl)-1H-imidazole]",Caspase 1 activation (caspase-p10 released into supernatant),Caspase 1,inhibit
same,"IL-1β release, IXZ potentiation of NLRP3 inflammasome activation","NLRP3 inflammasome; BMDM primed with IXZ and LPS, CDDO-2P-Im 100 nM 15 min before ATP (5 mM) 45 min",inhibited
same,NLRP3 inflammasome activation (IL-1β production),"NLRP3 inflammasome; BMDM primed with LPS in absence of IXZ, ATP trigger",direct suppression
same,IL-1β production by NLRP3 inflammasome activation,"NLRP3 inflammasome; LPS primed BMDM, different doses (30-1000 nM) 15 min before ATP (5 mM) 45 min, ELISA",inhibit
same,growth (confluence),CP70; nanomolar concentrations,suppressed growth in a dose-dependent manner
same,"ovarian cancer cell kill, combination with cisplatin",CP70; [1],significant gain
same,sensitivity (growth),CP10,highly sensitive
same,"ovarian cancer cell kill, combination with cisplatin",CP10; [1],significant gain
same,sensitivity (growth),OVCAR-8,highly sensitive
same,"ovarian cancer cell kill, combination with cisplatin",OVCAR-8; [1],significant gain
same,sensitivity (growth),OVCAR-5,highly sensitive
same,"ovarian cancer cell kill, combination with cisplatin",OVCAR-5; [1],significant gain
same,growth (confluence),A2780; nanomolar concentrations,suppressed growth in a dose-dependent manner
same,"ovarian cancer cell kill, combination with cisplatin",A2780; [1],significant gain
same,sensitivity (growth),OV81,highly sensitive
same,"ovarian cancer cell kill, combination with cisplatin",OV81; [1],significant gain
same,MSU-induced peritonitis (peritoneal cavity IL-1β levels),NLRP3,inhibit
same,expression of CCL2,CCL2,inhibit
